From patent US20230183234A1, “IAP ANTAGONIST COMPOUNDS AND INTERMEDIATES AND METHODS FOR SYNTHESIZING THE SAME” (Otsuka Pharmaceutical Co., Ltd., priority 2020, published 2023)

Test: Storage stability: level of aldehyde impurity of formula (XXV), HPLC peak at RRT 1.3
Format: physicochemical
Details: stored at 2-8° C.
Procedure: Based on experimental data, there is a correlation between the palladium content in the final end-product and drug substance of formula (XXIII) and the oxidative degradation of an aldehyde impurity. […] The degradation is manifested as an aldehyde impurity peak of formula (XXV) appearing at a relative retention time (RRT) of 1.3.
This impurity peak is found to be no more than 0.2% a/a when stored at 2-8° C., but higher levels are observed at elevated temperatures. The experimental results are depicted in FIGS. 6-7 and Tables 1, 4 and 5 for drug substance lots and corresponding formulations outlined in Tables 1-3.
The stability data and effect of palladium content on aldehyde impurity represented by the area percent of RRT 1.3 at a storage condition of 25° C. and 60% RH is provided in Table 4 and FIG. 6.
The effect of temperature on stability and the level of aldehyde impurity represented by the area percent of RRT 1.3 is provided in Table 5 and FIG. 7.

In the case of `C[C@@H]1CN(CC(=O)N2CC(C)(C)c3nc(CO)c(Cc4ccc(F)cc4)cc32)[C@@H](CN2CCOC[C@H]2C)CN1.C[C@H](O)C(=O)O` [formula (XXIII)], the “impurity peak level at RRT 1.3 (aldehyde impurity of formula (XXV))” value was “no more than 0.2 % a/a”.
